Molecules are shown by their SMILES.

The record followed here is patent US12668586B2, “AhR inhibitor, use thereof, and preparation method therefor” (CHONGQING PHARSCIN INNOBIO CO., LTD., priority 2021, dated 2026).

In the experiment the target is T1, AhR (Homo sapiens, UniProt P35869).
T1 sequence (P35869 11-848): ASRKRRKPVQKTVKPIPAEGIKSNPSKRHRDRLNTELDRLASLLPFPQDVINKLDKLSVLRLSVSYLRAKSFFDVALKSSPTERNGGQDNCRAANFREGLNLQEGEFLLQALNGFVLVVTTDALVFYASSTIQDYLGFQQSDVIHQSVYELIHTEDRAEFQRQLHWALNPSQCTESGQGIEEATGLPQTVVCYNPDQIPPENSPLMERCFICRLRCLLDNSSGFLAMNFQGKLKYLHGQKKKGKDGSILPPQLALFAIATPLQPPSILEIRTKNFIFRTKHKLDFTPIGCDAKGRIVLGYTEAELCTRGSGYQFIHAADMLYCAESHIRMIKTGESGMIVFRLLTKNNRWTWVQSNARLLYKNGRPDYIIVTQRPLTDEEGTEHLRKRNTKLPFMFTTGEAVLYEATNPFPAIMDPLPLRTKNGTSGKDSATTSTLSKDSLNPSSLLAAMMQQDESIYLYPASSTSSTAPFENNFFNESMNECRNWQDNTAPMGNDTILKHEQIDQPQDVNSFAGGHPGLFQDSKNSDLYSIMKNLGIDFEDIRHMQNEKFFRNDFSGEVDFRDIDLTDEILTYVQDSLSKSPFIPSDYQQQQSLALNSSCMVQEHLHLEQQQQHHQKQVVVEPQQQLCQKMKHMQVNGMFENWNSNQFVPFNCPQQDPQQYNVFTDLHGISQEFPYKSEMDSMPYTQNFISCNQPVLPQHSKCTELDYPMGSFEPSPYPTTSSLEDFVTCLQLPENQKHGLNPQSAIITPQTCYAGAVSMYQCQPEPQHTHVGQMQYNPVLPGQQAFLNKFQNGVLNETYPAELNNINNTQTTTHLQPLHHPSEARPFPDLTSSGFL
Briefly: AhR inhibitory activity experiment, in vitro assay 1: HepG2-Lucia AhR cells, Lucia luciferase reporter (QUANTI-Luc). The experiment is classed as cell-based. As to conditions: 24 hours incubation at 37° C., Lucia luciferase in supernatant, read-out: AhR inhibitory activity C50. The procedure:
Test Example: AhR Inhibitory Activity Experiment
When QUANTI-Luc™ (InvivoGen Company) testing reagents are used, AhR gene signaling pathways can be studied by monitoring the activity of Lucia luciferase in the cell culture supernatant.
In Vitro Assay 1: Assay on Inhibitory Activity in Human Cell Lines
Adherent cell layers of HepG2-Lucia™ AhR cells in a logarithmic growth phase were washed with PBS, and then the cells were isolated with trypsin. The isolated cells were centrifuged at 1000 RPM for 5 minutes, the supernatant was removed, and the cells were re-suspended with a test medium by 1.25×10^5 cells/ml.
20,000 cells were added to each well of a 96-well plate, and the 96-well plate was placed in a CO2 incubator to incubate the cells at 37° C. for 24 hours in the absence (negative control) or presence of test compounds with gradient increasing concentrations (typical dilutions: 169 pmol/L, 0.5 nmol/L, 1.5 nmol/L; 4.6 nmol/L, 13.7 nmol/L, 41 nmol/L, 123 nmol/L, 370 nmol/L, 1.1 μmol/L, 3.3 μmol/L and 10 μmol/L, in triplicate).
The 20 μl/well cell supernatant was transferred to a black 96-well plate, a 50 μL/well QUANTI-Luc™ solution was added, and the activity of Lucia luciferase was measured on a multifunctional ELISA reader Spark 10 M (Tecan Company) through a QUANTI-Luc™ luciferase assay system.
Experimental results are shown in Table 1, wherein for IC50 values, “++++” represents IC50<0.05 μM; “+++” represents IC50 between 0.05 μM and 0.2 μM; “++” represents IC50 between 0.2 μM and 1.0 μM; and “+” represents IC50>1.0 μM.
Background: Reporter assays use an easily measured gene product as a stand-in for the process of interest.
As to `Cn1cc(-c2nc(C(=O)N[C@H]3CC(C)(C)c4ccccc43)cc(-c3ccc(Cl)cc3)n2)cn1` [Compound 25, (S)-6-(4-chlorophenyl)-N-((S)-(3,3-dimethyl-2,3-dihydro)-(−)-1-yl-2-indene)-2-(1-methyl-1H-pyrazol-4-yl)pyrimidine-4-formamide], the IC50 is above 1000 nM.

In the case of `C[C@H](NC(=O)c1cc(-c2ccc(Cl)cc2)nc(-c2cnn(C)c2)n1)c1ccc(F)c(C#N)c1` [Compound 40, (S)-6-(4-chlorophenyl)-N-(1-(3-cyano-4-fluorophenyl)ethyl)-2-(1-methyl-1H-pyrazol-4-yl)pyrimidine-4-formamide], the IC50 was below 50 nM. As for `C[C@H](NC(=O)c1cc(-c2cnn(C)c2)nc(-c2cnn(C)c2)n1)c1ccnc(F)c1` [Compound 48, (S)-6-(1-methyl-1H-pyrazol-4-yl)-N-(1-(2-fluoro-4-pyridine)ethyl)-2-(1-methyl-1H-pyrazol-4-yl)pyrimidine-4-formamide], the IC50 is above 1000 nM.

Turning to `C[C@H](NC(=O)c1cc(-c2ccc(C#N)cc2)nc(-c2cnn(C)c2)n1)c1ccnc(F)c1` [Compound 58, (S)-6-(4-cyanophenyl)-N-(1-(2-fluoro-4-pyridine)ethyl)-2-(1-methyl-1H-pyrazol-4-yl)pyrimidine-4-formamide], the IC50 is 50 to 200 nM. The same measure for `COc1ccc([C@H](C)NC(=O)c2cc(-c3ccc(Cl)cc3)nc(-c3cnn(C)c3)n2)cc1F` [Compound 8, (S)-6-(4-chlorophenyl)-N-(1-(3-fluoro-4-methoxyphenyl)ethyl)-2-(1-methyl-1H-pyrazol-4-yl)pyrimidine-4-formamide]: below 50 nM; for `Cn1cc(-c2nc(C(=O)NC3(C)CCN(CC(N)=O)CC3)cc(-c3ccc(Cl)cc3)n2)cn1` [Compound 45, 6-(4-chlorophenyl)-N-(2-(4-yl-4-methylpiperidin-1-yl)acetamide)-2-(1-methyl-1H-pyrazol-4-yl)pyrimidine-4-formamide]: below 50 nM. The same measure for `COc1cc([C@H](C)NC(=O)c2cc(-c3ccc(Cl)cc3)nc(-c3cnn(C)c3)n2)ccc1F` [Compound 30, (S)-6-(4-chlorophenyl)-N-(1-(3-methoxy-4-fluorophenyl)ethyl)-2-(1-methyl-1H-pyrazol-4-yl)pyrimidine-4-formamide]: below 50 nM; for `Cn1cc(-c2nc(C(=O)N[C@H](c3ccc(F)cc3)C3CC3)cc(-c3ccc(Cl)cc3)n2)cn1` [Compound 19, (S)-6-(4-chlorophenyl)-N-(1-cyclopropyl(4-fluorophenyl))-2-(1-methyl-1H-pyrazol-4-yl)pyrimidine-4-formamide]: below 50 nM; for `C[C@H](NC(=O)c1cc(-c2ccc(Cl)cc2)nc(-c2cnn(C)c2)n1)c1ccc(F)c(Cl)c1` [Compound 31, (S)-6-(4-chlorophenyl)-N-(1-(3-chloro-4-fluorophenyl)ethyl)-2-(1-methyl-1H-pyrazol-4-yl)pyrimidine-4-formamide]: below 50 nM. The same measure for `Cn1cc(-c2nc(C(=O)NC3(C)CCN(CC(F)(F)F)CC3)cc(-c3ccc(Cl)cc3)n2)cn1` [Compound 44, 6-(4-chlorophenyl)-N-((4-yl-4-methylpiperidin-1-yl)trifluoroethyl)-2-(1-methyl-1H-pyrazol-4-yl)pyrimidine-4-formamide]: below 50 nM; for `C[C@H](NC(=O)c1cc(-c2ccc(OC(F)(F)F)cc2)nc(-c2cnn(C)c2)n1)c1ccnc(F)c1` [Compound 34, (S)-6-(4-trifluoromethoxyphenyl)-N-(1-(2-fluoro-4-pyridine)ethyl)-2-(1-methyl-1H-pyrazol-4-yl)pyrimidine-4-formamide]: below 50 nM; for `C[C@H](NC(=O)c1cc(-c2ccc(Cl)cc2)nc(-c2cnn(C)c2)n1)c1ccc(Cl)c(F)c1` [Compound 13, (S)-6-(4-chlorophenyl)-N-(1-(3-fluoro-4-chlorophenyl)ethyl)-2-(1-methyl-1H-pyrazol-4-yl)pyrimidine-4-formamide]: below 50 nM. Consider `C[C@H](NC(=O)c1cc(-c2ccc(Cl)cc2)nc(-c2cnn(C)c2)n1)c1ccnc(Cl)c1` [Compound 9, (S)-6-(4-chlorophenyl)-N-(1-(2-chloro-4-pyridine)ethyl)-2-(1-methyl-1H-pyrazol-4-yl)pyrimidine-4-formamide], for which the IC50 is below 50 nM. Under `C[C@H](NC(=O)c1cc(-c2ccc(Cl)cc2)nc(-c2cccnc2)n1)c1ccnc(F)c1` [Compound 35, (S)-6-(4-chlorophenyl)-N-(1-(2-fluoro-4-pyridine)ethyl)-2-(3-pyridin-4-yl)pyrimidine-4-formamide] stands below 50 nM; under `C[C@H](NC(=O)c1cc(-c2ccc(Cl)cc2)nc(-c2cnn(C)c2)n1)c1ccc(O)c(F)c1` [Compound 11, (S)-6-(4-chlorophenyl)-N-(1-(3-fluoro-4-hydroxyphenyl)ethyl)-2-(1-methyl-1H-pyrazol-4-yl)pyrimidine-4-formamide], above 1000 nM. Under `C[C@H](NC(=O)c1cc(-c2ccc(Cl)cc2)nc(-c2cnn(C)c2)n1)c1ccc(F)c(F)c1` [Compound 1, (S)-6-(4-chlorophenyl)-N-(1-(3,4-difluorophenyl)ethyl)-2-(1-methyl-1H-pyrazol-4-yl)pyrimidine-4-formamide] stands below 50 nM; under `C[C@H](NC(=O)c1cc(-c2ccc(Cl)cc2)nc(-c2cnn(C3CC3)c2)n1)c1ccnc(F)c1` [Compound 39, (S)-6-(4-chlorophenyl)-N-(1-(2-fluoro-4-pyridine)ethyl)-2-(1-cyclopropylpyrazol-4-yl)pyrimidine-4-formamide], above 1000 nM.

With `Cn1cc(-c2nc(C(=O)N[C@H]3CCc4ccc(F)cc43)cc(-c3ccc(Cl)cc3)n2)cn1` [Compound 21, (S)-6-(4-chlorophenyl)-N-((S)-(6-fluoro-2,3-dihydro)-(−)-1-yl-2-indene)-2-(1-methyl-1H-pyrazol-4-yl)pyrimidine-4-formamide], the IC50 lay in the range of 50 to 200 nM. Regarding `O=C(N[C@H]1CCc2ncccc21)c1cc(-c2ccc(Cl)cc2)nc(-c2ccnc(F)c2)n1` [Compound 62, (S)-6-(4-chlorophenyl)-N-((S)-6,7-dihydro-5H-cyclopentano[B]pyridin-5-yl)-2-(2-fluoro-4-pyridine)pyrimidine-4-formamide], the IC50 was below 50 nM. For `C[C@H](NC(=O)c1cc(-c2ccc(Cl)cc2)nc(-c2cnn(C)c2)n1)c1cnn(C)c1` [Compound 14, (S)-6-(4-chlorophenyl)-N-(1-(1-methyl-1H-pyrazol-4-yl)ethyl)-2-(1-methyl-1H-pyrazol-4-yl)pyrimidine-4-formamide], the IC50 was below 50 nM. Under `Cn1cc(-c2nc(C(=O)NCCc3c[nH]c4ccccc34)cc(-c3ccc(Cl)cc3)n2)cn1` [Compound 6, (S)-6-(4-chlorophenyl)-N-(2-(1H-indol-3-yl)ethyl)-2-(1-methyl-1H-pyrazol-4-yl)pyrimidine-4-formamide] stands above 1000 nM; under `Cn1cc(-c2nc(C(=O)N[C@H]3CCc4ncccc43)cc(-c3ccc(Cl)cc3)n2)cn1` [Compound 2, (S)-6-(4-chlorophenyl)-N-((S)-6,7-dihydro-5H-cyclopentano[B]pyridin-5-yl)-2-(1-methyl-1H-pyrazol-4-yl)pyrimidine-4-formamide], below 50 nM. On to `C[C@H](NC(=O)c1cc(-c2ccc(Cl)cc2)nc(-c2cnn(C)c2)n1)c1ccc2c(c1)OCO2` [Compound 16, (S)-6-(4-chlorophenyl)-N-(1-[5(2H-1,3-benzodioxomethylene)]ethyl)-2-(1-methyl-1H-pyrazol-4-yl)pyrimidine-4-formamide], for which the IC50 was 50 to 200 nM.
